Data as given in patent US8778643B2, “Methods for increasing lipid levels and producing triacylglycerols in algae” (priority 2012, dated 2014).
Where two headings read alike, the source gives them in different places.

Experiments:
Nannochloropsis sp. = test: Microplate assay: increase of lipid production (Table 17); assay type: cell-based; settings: best conc. 2.4 nM
Text: We also tested a collection with more antioxidants, kinase inhibitors, and further compounds for increase of lipid production with N. salina, P. tricornutum, N. oculata, and Nannochloropsis sp.

FABI = settings: cited from earlier work
Nannochloris sp. = test: Microplate assay: growth (absorbance 680 nm) and intracellular lipids (Nile Red fluorescence); assay type: cell-based; settings: microplate assay, multiple concentrations
Procedure: (§1) Stock cultures were aerated by stirring with bubbling air (homemade manifold with Petco air pump, 2-4% CO2) or by orbital shaking (Thermo Scientific MAXQ 2000) at a constant speed of 150 rpm at 22±3° C. with a 16:8 hour light/dark cycle. Stocks were kept at stationary phase for use. Algae were prepared as dictated by culture center.
(§2) Compounds were selected based on reported biological activity in non-microalgae organisms. To ensure that compounds retained their quality, they were stored under advised conditions after purchasing from the manufacturer. Solutions of all assay compounds were prepared as 10 mM stock solutions by dissolving in DMSO in 2-dram amber vials and then stored in darkness −20° C. 96-well PCR plates were used to create a stock plate layout that was then transferred to the algae microplates. A plate map was used to distribute each compound to a well based on molecule name, collection number, and CAS number. For 20 μM and 200 nM assay plates, 10 mM compound stock in DMSO was diluted into plate maps of 5 mM and 50 μM assay stocks, respectively.
(§3) All materials for assay experiments were autoclaved before each use to maintain axenic algae cultures. Algae species were checked for homogeneity using a TS-100 light microscope (Nikon, Japan). […] Diluted stock solutions were made immediately prior to use for consistency and optimal plate growth. Cell density was measured on a Thermo Scientific Genesys 10S Vis Spectrophotometer (ThermoFisher, San Jose), using a 1 mL cuvette at 680 nm.
(§4) Plates were originally run in triplicate, before replicates were increased to quadruplicate, along with a separate control plate to compare growth. Due to extensive evaporation in exterior wells over time, our unique algae plate layout was designed to use the 60 interior wells out of 96 wells for the experiment. The 36 outer wells were filled with Millipore water and media to prevent evaporation and edge effects in the inner algae wells, as well as serve as blanks. The 60 wells with algae contained a total volume of 251 μL (100 μL of media+DMSO compound stock +150 μL dilute algae stock). For 20 μM and 200 nM assay plates, 10 mM compound stock in DMSO is diluted into plate maps of 5 mM and 50 μM assay stocks, respectively. […] Plates were parafilmed during growth to limit the amount of evaporation that can occur. Plates were numbered, and numerically ordered to ensure they got the same shaker space.
(§5) The shakers are kept at a constant shaking of 150 rpm. Ambient temperature is 22±3° C.

Nannochloropsis salina = settings: microplate assay, multiple concentrations
[1] = system: Phaeodactylum tricornutum; test: Microplate assay: growth (absorbance 680 nm) and intracellular lipids (Nile Red fluorescence); assay type: cell-based
Nannochloropsis oculata = settings: microplate assay, multiple concentrations
Procedure: as §1, §2, §3, §4, §5

CDK4/cyclin D1 = CDK4/cyclin D1 (Homo sapiens, UniProt P11802); settings: cited from earlier work
Chain of CDK4/cyclin D1 (P11802 whole entry, species assumed): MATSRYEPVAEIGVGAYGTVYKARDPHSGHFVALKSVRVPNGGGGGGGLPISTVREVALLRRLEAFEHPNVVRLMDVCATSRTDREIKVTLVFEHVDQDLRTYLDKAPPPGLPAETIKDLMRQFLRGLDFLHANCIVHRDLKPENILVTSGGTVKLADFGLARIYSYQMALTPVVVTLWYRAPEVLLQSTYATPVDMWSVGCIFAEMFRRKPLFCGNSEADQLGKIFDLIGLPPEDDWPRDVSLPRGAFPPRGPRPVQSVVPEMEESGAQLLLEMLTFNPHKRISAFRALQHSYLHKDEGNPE
Chain of CDK4/cyclin D1 (P24385 whole entry partner, species assumed): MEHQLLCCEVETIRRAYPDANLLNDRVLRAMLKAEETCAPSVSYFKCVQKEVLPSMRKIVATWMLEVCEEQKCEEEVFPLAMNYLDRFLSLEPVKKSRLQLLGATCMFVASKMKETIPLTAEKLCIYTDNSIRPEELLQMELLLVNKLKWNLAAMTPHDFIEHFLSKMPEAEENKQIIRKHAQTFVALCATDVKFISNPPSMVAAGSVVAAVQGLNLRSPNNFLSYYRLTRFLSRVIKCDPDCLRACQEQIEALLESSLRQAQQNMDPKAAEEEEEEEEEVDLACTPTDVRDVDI

Cdk2/cyclin A = Cdk2/cyclin A (Homo sapiens, UniProt P24941); settings: CDK2/A; cited from earlier work

Cc1c(C)c2c(c(C)c1O)CC[C@@](C)(CCC[C@H](C)CCC[C@H](C)CCCC(C)C)O2 (racemic) [DL-α-Tocopherol (Vitamin E), (2R)-2,5,7,8-tetramethyl-2-[(4R,8R)-4,8,12-trimethyltridecyl]-3,4-dihydrochromen-6-ol]
% Inc (Nannochloropsis sp.): 31.44%

O=C(O[C@@H]1Cc2c(O)cc(O)cc2O[C@@H]1c1ccc(O)c(O)c1)c1cc(O)c(O)c(O)c1 [(−)-epicatechin gallate, [(2R,3R)-2-(3,4-dihydroxyphenyl)-5,7-dihydroxy-3,4-dihydro-2H-chromen-3-yl] 3,4,5-trihydroxybenzoate]
IC50 (FABI): 200 nM | effect on lipid production / lipid levels (Nannochloris sp.): lipid production increased | effect on lipid production / lipid levels (Nannochloropsis salina): lipid production increased | % Inc ([1]; increase of lipid production, P. tricornutum, best conc. 156 nM): 77.89% | effect on lipid production / lipid levels ([1]; microplate assay, multiple concentrations): lipid production increased | concentration of the highest lipid increase ([1]; microplate, catechin screen (FIG. 14)): 39 to 56 nM | effect on lipid production / lipid levels (Nannochloropsis oculata): lipid production increased

O=C1NC(=O)c2c1c1c3ccccc3[nH]c1c1[nH]c3cc(Br)ccc3c21 [CDK4 Inhibitor 3, 2-Bromo-12,13-dihydro-5H-indolo[2,3a]pyrrolo[3,4-c]carbazole-5,7(6H)-dione]
IC50 (CDK4/cyclin D1; CDK4/D1): 6000 nM | IC50 (Cdk2/cyclin A): > 200000 nM

COc1ccc(OC)c2c(=S)c3ccccc3[nH]c12 [CDK4 Inhibitor II NSC]
IC50 (CDK4/cyclin D1; CDK4/cyclin D1): 200 nM
